Earlier results in patent US6814987B2, “Compositions and methods of use for extracts of magnoliaceae plants” (NPI, LLC., priority 2000, dated 2004).
Read-outs that look alike come from different tables or passages of the source.

| SMILES | duration of muscle relaxing effect (250 mg/kg) | observed effect (500 mg/kg) | observed effects (mice; 63 mg/kg intraperitoneally) | duration of effects after injection (mice; 125 mg/kg) | observed effects (mice; 125 mg/kg) | duration of muscle relaxation (mice; 250 mg/kg) | time to ataxia (mice; 250 mg/kg) | time to loss of righting reflex (mice; 250 mg/kg) |
| --- | --- | --- | --- | --- | --- | --- | --- | --- |
| C=CCc1ccc(O)c(-c2ccc(O)c(CC=C)c2)c1 [honokiol] | 3 h | loss of righting reflex | – | – | – | – | – | – |
| C=CCc1ccc(O)c(-c2cc(CC=C)ccc2O)c1 [magnolol] | – | – | hypomotility, ptosis, and sedation | 2 h | sedation, ataxia, and prominent muscle relaxation | over 3 hr | ≤ 10 min | 40 min |
